# Experimental data from ChEMBL document CHEMBL4145565, “Prolyl Hydroxylase Inhibitors: A Breakthrough in the Therapy of Anemia Associated with Chronic Diseases” (J Med Chem, 2018).
# Legend:
# [1] = Inhibition of PHD (unknown origin) by FRET assay; design: species or system Homo sapiens
# [2] = Inhibition of PHD in human A549 cells by luciferase reporter gene assay; type: cell-based
# Egl nine homolog 1 [3] = biological target: T1, Egl nine homolog 1 (Homo sapiens, UniProt Q9GZT9); assay: Inhibition of FLAG- tagged full length HIF-PHD2 (unknown origin) expressed in baculovirus-infected Sf9 cells using biotin labelled DLDLEMLAPYIPMDDDFQL as substrate preincubated for 30 mins followed by substrate addition measured after 2 hrs by LANCE assay
# T1 sequence (Q9GZT9 whole entry): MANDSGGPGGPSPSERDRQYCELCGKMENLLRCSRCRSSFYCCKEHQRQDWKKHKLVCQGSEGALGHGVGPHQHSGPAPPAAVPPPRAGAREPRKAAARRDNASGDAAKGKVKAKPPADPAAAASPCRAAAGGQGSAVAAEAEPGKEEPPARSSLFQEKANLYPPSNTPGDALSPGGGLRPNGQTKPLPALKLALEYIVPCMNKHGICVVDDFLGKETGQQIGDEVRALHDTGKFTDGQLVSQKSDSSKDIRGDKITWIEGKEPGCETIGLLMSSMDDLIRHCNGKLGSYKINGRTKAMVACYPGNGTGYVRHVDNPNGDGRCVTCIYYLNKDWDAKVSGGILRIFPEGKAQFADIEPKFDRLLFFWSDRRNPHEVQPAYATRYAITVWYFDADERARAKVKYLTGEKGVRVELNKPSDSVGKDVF
# Homo sapiens [4] = assay: In vivo inhibition of PHD in human assessed as induction of EPO level in serum at 900 mg measured after 18 hrs; type: functional
# Prolyl hydroxylase EGLN3 [5] = biological target: T2, Prolyl hydroxylase EGLN3 (Homo sapiens, UniProt Q9H6Z9); assay: Inhibition of PHD3 (unknown origin)
# T2 sequence (Q9H6Z9 whole entry): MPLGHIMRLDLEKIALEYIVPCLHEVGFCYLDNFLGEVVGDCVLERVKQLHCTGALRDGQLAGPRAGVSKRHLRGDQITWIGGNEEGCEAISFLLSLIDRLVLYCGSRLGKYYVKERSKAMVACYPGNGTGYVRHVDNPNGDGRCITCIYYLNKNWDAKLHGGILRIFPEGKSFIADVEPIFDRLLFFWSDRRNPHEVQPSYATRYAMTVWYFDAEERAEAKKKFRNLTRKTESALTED
# Prolyl hydroxylase EGLN2 = Prolyl hydroxylase EGLN2 (Homo sapiens, UniProt Q96KS0); assay: Inhibition of PHD1 (unknown origin)
# Chain of Prolyl hydroxylase EGLN2 (Q96KS0 whole entry): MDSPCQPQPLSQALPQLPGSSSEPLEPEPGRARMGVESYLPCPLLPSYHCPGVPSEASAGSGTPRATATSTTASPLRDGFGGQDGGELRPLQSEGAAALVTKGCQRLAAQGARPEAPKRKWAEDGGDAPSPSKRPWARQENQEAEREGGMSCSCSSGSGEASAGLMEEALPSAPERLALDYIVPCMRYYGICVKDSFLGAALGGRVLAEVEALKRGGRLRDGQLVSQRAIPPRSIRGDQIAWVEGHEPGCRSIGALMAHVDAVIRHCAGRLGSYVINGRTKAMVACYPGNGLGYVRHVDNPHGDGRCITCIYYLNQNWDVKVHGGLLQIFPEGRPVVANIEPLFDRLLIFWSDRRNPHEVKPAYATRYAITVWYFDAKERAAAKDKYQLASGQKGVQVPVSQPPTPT
# Mus musculus [6] = assay: In vivo inhibition of PHD in B6D2F1 mouse assessed as induction of EPO level at 60 mg/kg measured at 12 hrs post dose relative to control; type: functional
# Homo sapiens [7] = assay: In vivo inhibition of PHD in human assessed as induction of EPO level in serum at 10 mg measured after 4 weeks; type: functional
# Homo sapiens [8] = organism: Homo sapiens; assay: Inhibition of PHD (unknown origin) assessed as induction of EPO by cell based assay relative to control
# Homo sapiens [9] = organism: Homo sapiens; assay: Selectivity ratio of IC50 for PHD3 (unknown origin) to IC50 for PHD2 (unknown origin)
# Homo sapiens [10] = organism: Homo sapiens; assay: Selectivity ratio of IC50 for HIF-PHD2 (unknown origin) to IC50 for HIF-PHD1 (unknown origin)
# Prolyl hydroxylase EGLN3 [11] = biological target: T2, Prolyl hydroxylase EGLN3; assay: Inhibition of His tagged MBP-PHD3 (1 to 230 residues) (unknown origin) expressed in Escherichia coli using Cy5-labelled HIF2alpha as substrate preincubated for 3 mins followed by substrate addition nmeasured after 30 mins by LANCE assay
# Egl nine homolog 1 [12] = biological target: T1, Egl nine homolog 1; assay: Inhibition of human PHD2 expressed in 293FT cells using HIF-1 [alpha] as substrate after 20 mins by fluorescence polarization assay
# Egl nine homolog 1 [13] = biological target: T1, Egl nine homolog 1; assay: Inhibition of N-terminal truncated PHD2 (unknown origin) using biotin labelled DLDLEMLAPYIPMDDDFQL as substrate by AlphaScreen assay
# Homo sapiens [14] = organism: Homo sapiens; assay: Antianemic activity in human assessed as increase in hemoglobin level; type: functional
# [15] = Half life in human at 1 to 2 mg/kg, po administered as two or three times weekly; type: ADME, organism-based; conditions: in vivo
# Homo sapiens [16] = assay: In vivo inhibition of PHD in human assessed as induction of EPO level in serum at 1 mg/kg, po administered as twice weekly measured at 4 to 10 hrs post dose; type: functional
# Egl nine homolog 1 [17] = biological target: T1, Egl nine homolog 1; assay: Inhibition of HIF-PHD2 (unknown origin) by fluorescence polarization assay
# Homo sapiens [18] = organism: Homo sapiens; assay: Inhibition of PHD in human Hep3B cells assessed as induction of EPO level by cell based assay relative to control
# [19] = Oral bioavailability in Wistar rat; type: ADME, organism-based; conditions: in vivo
# [20] = Oral bioavailability in dog; type: ADME, organism-based, Canis lupus familiaris; conditions: in vivo
# [21] = Oral bioavailability in monkey; type: ADME, organism-based, Macaca mulatta; conditions: rhesus monkey, in vivo
# Rattus norvegicus [22] = assay: In vivo inhibition of PHD in Wistar rat assessed as increase in packed cell volume at 1.25 mg/kg, po measured after 26 days relative to control; type: functional; design: scale not given: the % may be the effect or the level left
# Rattus norvegicus [23] = assay: In vivo inhibition of PHD in Wistar rat assessed as increase in packed cell volume at 5 mg/kg, po measured after 26 days relative to control; type: functional; design: scale not given: the % may be the effect or the level left
# [24] = Inhibition of PHD (unknown origin); design: species or system Homo sapiens
# [25] = Inhibition of PHD in rat H9C2 cells after 24 hrs by ELISA; type: cell-based
# Mus musculus [26] = assay: Cardioprotective activity in C57BL/6 mouse assessed as reduction in area of infract at 30 mg/kg measured at 4 hrs post dose relative to control; type: functional; design: scale not given: the % may be the effect or the level left
# Mus musculus [27] = assay: Cardioprotective activity in C57BL/6 mouse assessed as reduction in area of infract at 10 mg/kg measured at 4 hrs post dose relative to control; type: functional; design: scale not given: the % may be the effect or the level left
# Mus musculus [28] = assay: Cardioprotective activity in C57BL/6 mouse assessed as reduction in lactate dehydrogenase release to coronary effluent at 30 mg/kg measured at 4 hrs post dose relative to control; type: functional; design: scale not given: the % may be the effect or the level left
# Mus musculus [29] = assay: Cardioprotective activity in C57BL/6 mouse assessed as reduction in lactate dehydrogenase release to coronary effluent at 10 mg/kg measured at 4 hrs post dose relative to control; type: functional; design: scale not given: the % may be the effect or the level left
# Mus musculus [30] = assay: Cardioprotective activity in C57BL/6 mouse assessed as induction in VEGF mRNA levels at 60 mg/kg, po measured at 2 hrs post dose by qRT-PCR relative to control; type: functional
smiles,measurement,setting,value
O=c1c(-c2cccnc2)c[nH]n1-c1ccccn1,IC50,[1],430 nM
same,EC50,[2],4900 nM
O=C(O)CCNC(=O)c1ncc(C(=O)NC(c2ccccc2)c2ccccc2)c(O)n1,IC50,Egl nine homolog 1 [3],< 20 nM
O=C(O)CNC(=O)c1ncc(-c2cccc(Cl)c2)cc1O,Activity,Homo sapiens [4],32.4 mU/ml
O=C(O)CNC(=O)c1c(O)n(C2CCCCC2)c(=O)n(C2CCCCC2)c1=O,IC50,Prolyl hydroxylase EGLN3 [5],5.5 nM
same,IC50,Prolyl hydroxylase EGLN2,3.5 nM
same,fold change (FC),Mus musculus [6],11.2
same,Activity,Homo sapiens [7],500 mIU/ml
O=C(O)c1cnn(-c2nc(O)c3c(cnn3C(c3ccc(Cl)cc3)c3ccc(Cl)cc3)n2)c1,fold change (FC),Homo sapiens [8],40
same,Ratio IC50,Homo sapiens [9],130
COc1ccc(C(NC(=O)c2cnc(-c3cccnn3)nc2O)c2ccc([PH](=O)O)cc2)cc1 (stereo not given),IC50,Egl nine homolog 1 [3],< 10 nM
N#Cc1nc(C(=O)NCCC(=O)O)c(O)c2ccc(Oc3ccccc3)cc12,Ratio IC50,Homo sapiens [10],5
COc1ccc(-n2c(=O)[nH]c3cc(C(=O)NCc4ccc(Cl)cc4)sc3c2=O)nc1OC,IC50,Prolyl hydroxylase EGLN3 [11],1 to 100 nM
O=C(NCc1ccc2c(c1)CCO2)c1ccc(-c2ncn[nH]2)nc1,IC50,Egl nine homolog 1 [12],61 nM
O=C(O)CCC(=O)NNC(=O)c1cc2ccccc2cn1,IC50,Egl nine homolog 1 [13],18400 nM
Cc1nc(C(=O)NCC(=O)O)c(O)c2ccc(Oc3ccccc3)cc12 [ROXADUSTAT],Activity,Homo sapiens [14],>=1 g/dl
same,half-life,[15],12 h
same,Activity,Homo sapiens [16],115 mU/ml
CC(CC(=O)O)NC(=O)c1nc(C#N)c2cc(Oc3ccccc3)ccc2c1O (stereo not given),Ratio IC50,Homo sapiens [10],40
CC(C)(C)NC(=O)c1ccc(-n2[nH]cc(-c3cccnc3)c2=O)nc1,IC50,[1],910 nM
O=C(O)CNC(=O)c1ncc(-c2cccc(F)c2)cc1O,IC50,Egl nine homolog 1 [17],13700 nM
COc1ccc(-n2c(=S)[nH]c3cc(C(=O)NCc4ccc(Cl)cc4)sc3c2=O)nc1OC,IC50,Prolyl hydroxylase EGLN3 [11],1 to 100 nM
O=C(O)CNC(=O)c1ncc(C#CCOc2ccc(Cl)cc2)cc1O [DDO-3055],IC50,Egl nine homolog 1 [17],13700 nM
COc1ccc(Oc2ccc3c(O)c(C(=O)NC(C)(C)CC(=O)O)nc(C#N)c3c2)cc1,Ratio IC50,Homo sapiens [10],40
CC(=O)Nc1c[nH]n(-c2ccc(C(=O)NCc3cccc(-c4ccccc4)c3)cc2)c1=O,fold change (FC),Homo sapiens [18],40
O=c1c(-n2ccnn2)c[nH]n1-c1cc(N2CCOCC2)ncn1 [MOLIDUSTAT],bioavailability,[19],34%
same,bioavailability,[20],71%
same,bioavailability,[21],61%
same,Activity,Rattus norvegicus [22],3%
same,Activity,Rattus norvegicus [23],17%
O=C(Cc1ccc(-c2ccccc2)cc1)Nc1cnc(-n2cccn2)nc1O,IC50,Egl nine homolog 1 [3],0.7 nM
CCN1CCN(C(=O)c2ccc(-n3ncc(-c4ccc(C#N)cc4C)c3O)nc2)CC1,pIC50,[24],8
same,pEC50,[25],6.25
same,Activity,Mus musculus [26],59%
same,Activity,Mus musculus [27],50%
same,Activity,Mus musculus [28],56%
same,Activity,Mus musculus [29],51%
same,fold change (FC),Mus musculus [30],2
COCC1(CNC(=O)c2ccc(-n3ncc(-c4ccnc(OC)c4)c3O)nc2)CCCC1,pIC50,[24],8.4
same,pEC50,[25],6.45
